Series [1] relates to M. tuberculosis H37Rv. Briefly: MIC, microplate-based Alamar Blue assay. The class given is cell-based, Mycobacterium tuberculosis.
Series [2] in a line: Mouse liver microsomal stability. The class given is in vitro ADME. The note with it: liver microsomes, pH 7.4. On the technique in general: Liver microsomes are vesicles of endoplasmic reticulum, rich in cytochrome P450 enzymes.
A short description of series [3]: Kinetic aqueous solubility. Format: physicochemical. The note with it: universal aqueous buffer, pH 7.4.
For the next series, the system named is E. cloacae. Briefly: MIC versus ESKAPE bacteria: E. cloacae. The class given is cell-based. The conditions noted are these: Enterobacter cloacae.
The next series addresses purified InhA (Mycobacterium tuberculosis, UniProt P9WGR1). Briefly: biochemical. More on the design: species or system M. tuberculosis.
Another series can be described thus: in vivo. The note with it: female, mouse; for Vd / clearance / half-life: iv, 5 mg/kg.
The subject of series [4] is M. tuberculosis H37Rv. Briefly: Griess assay for NO• quantification, H37Rv. Format: cell-based, Mycobacterium tuberculosis. The conditions noted are these: 20 μM compound, 5 d exposure, lower limit of quantification 0.80 μM NO2−. Background: Nitrite, measured by Griess reagent, commonly stands in for NO production.
The test system of the next series is E. faecium. Briefly: MIC versus ESKAPE bacteria: E. faecium. The class given is cell-based. The note with it: Enterococcus faecium.
A short description of series [5]: Vero cell-based cytotoxicity. The conditions noted are these: African green monkey, Vero cells.
A further series deals with M. tuberculosis fgd1∷tn. Briefly: Griess assay for NO• quantification, fgd1∷tn. Format: cell-based, Mycobacterium tuberculosis. The conditions noted are these: 20 μM compound, lower limit of quantification 0.80 μM NO2−.
Series [6] has as its system M. tuberculosis H37Rv. The class given is in vivo. The note with it: 60 and 200 mg/kg oral daily, after 4 weeks of dosing, Balb/c mice.
Series [7] concerns FAS-II pathway in M. tuberculosis H37Rv. The class given is cell-based, Mycobacterium tuberculosis.
Series [8] has as its system human cytochrome P450 isoforms. Format: in vitro ADME.
The nature of series [9]: Human liver microsomal stability. Format: in vitro ADME. The conditions noted are these: liver microsomes, pH 7.4.
A short description of series [10]: Dose proportionality and tolerability in mice. The note with it: single dose 300 mg/kg.
The conditions of series [11]: for T>MIC: single 25 mg/kg po dose.
A further series deals with P aeruginosa. Briefly: MIC versus ESKAPE bacteria: P aeruginosa. The class given is cell-based.
The nature of the next series: Mouse plasma stability. The class given is in vitro ADME. The conditions noted are these: after 5 h incubation.
The test system of series [12] is 100 day-old cultures of M. tuberculosis H37Rv. Format: cell-based, Mycobacterium tuberculosis.
Series [13] in a line: Chemical stability, degradation to aminotriazine. The conditions noted are these: C-N bond cleavage to aminotriazine JSF-3226, light-dependent.
The test system of the next series is M. tuberculosis. The series can be described thus: Minimum bactericidal concentration. The class given is cell-based, Mycobacterium tuberculosis.
Series [14] concerns M. tuberculosis strain fgd1∷tn. Briefly: MIC versus F420H2 deficient strain fgd1∷tn. Format: cell-based, Mycobacterium tuberculosis.
Series [15] deals with M. tuberculosis H37Rv. The conditions noted are these: cited from earlier work.
For series [16] the following is noted: ref Inoyama et al., 2018; cited from earlier work.
The mark [17] stands for this setting: Mycobacterium tuberculosis, H37RV.

Results on 8 molecules are retold here after paper PMC7035970 (Cell chemical biology, 2019).

Converted amounts (≈) assume the structure as drawn. Read-outs that look alike come from different tables or passages of the source. A value given as a limit tells only on which side of the number the result lay.

One may read the MIC as the lowest concentration that inhibits growth of the organism. A low value points to inhibition by little substance. The term half-life denotes the time needed for the level to fall by half in the phase considered. A lower half-life goes with fast loss. For orientation: solubility means the concentration that dissolves in the medium under given conditions. What is called IC50 is the concentration at which inhibition is half-maximal. For orientation: Vd means the apparent volume that relates the amount in the body to the concentration in plasma or blood. A higher Vd goes with extensive tissue distribution. Usually clearance stands for the volume of plasma or blood freed of the substance per unit of time. Low values mean inefficient removal, high ones efficient removal. In general, AUC(0-t) refers to the area under the concentration-time curve up to a stated or last time point. A higher AUC(0-t) goes with more exposure. In general, Cmax refers to the peak of the concentration-time curve. In general, bioavailability refers to dose-corrected exposure relative to a reference, in per cent. What is called CC50 is the concentration at which the toxic effect on the cells reaches its halfway point. By microsomal CLint is commonly meant the rate of metabolic loss divided by the concentration. A low value points to slow turnover. Usually AUC stands for the area under the concentration-time curve, a measure of exposure. Read a low AUC as low exposure.

purified InhA, sequence (P9WGR1 whole entry, looked up): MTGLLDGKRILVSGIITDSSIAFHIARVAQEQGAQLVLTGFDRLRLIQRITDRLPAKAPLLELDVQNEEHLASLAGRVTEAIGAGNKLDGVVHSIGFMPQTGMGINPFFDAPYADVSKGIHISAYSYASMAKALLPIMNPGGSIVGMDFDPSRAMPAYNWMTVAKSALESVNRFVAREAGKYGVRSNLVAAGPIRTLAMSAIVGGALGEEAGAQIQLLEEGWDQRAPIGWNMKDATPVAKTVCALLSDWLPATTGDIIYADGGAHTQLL

Take `O=[N+]([O-])c1ccc(/C=N/Nc2nc(N3CCOCC3)nc(N3CCOCC3)n2)o1` [JSF-2189, (E)-4,4'-(6-(2-((5-nitrofuran-2-yl)methylene)hydrazineyl)-1,3,5-triazine-2,4-diyl)dimorpholine]: the minimal inhibitory concentration (MIC) in the series on M. tuberculosis H37Rv [1] (setting [17]) was determined as 7.8 µM (≈ 3.15 µg/mL). Also, the half-life in series [2] is 68 min. The solubility at 4 h in [3] is 20.2 µM (≈ 8.17 µg/mL).

In the case of `O=[N+]([O-])c1ccc(/C=N/Nc2nc(Nc3ccccc3)nc(N3CCOCC3)n2)o1` [JSF-2513, (E)-4-morpholino-6-(2-((5-nitrofuran-2-yl)methylene)hydrazineyl)-N-phenyl-1,3,5-triazin-2-amine], the MIC against E. cloacae was more than 120 µM. Besides, the IC50 on purified InhA (InhA IC50) is more than 150 µM. In the series “in vivo”, this molecule showed a Vd of 1.38 L/kg, a clearance of 37.2 mL/min/kg and a half-life of 25.8 min. Moreover, in “in vivo” (po, 25 mg/kg), the exposure AUC(0-t) was found to be 12000 ng·h/mL, the highest level (Cmax) was 1710 ng/mL and the bioavailability is not below 99%. In addition, the minimal inhibitory concentration (MIC) against M. tuberculosis H37Rv [1] (setting [17]) was 0.63 µM (≈ 0.259 µg/mL). The “NO• release quantified as nitrite” value in the series on M. tuberculosis H37Rv [4] is given as “in a lesser amount than JSF-2019”. The MIC in the series on E. faecium was 15 µM (≈ 6.16 µg/mL). This molecule displayed a CC50 in series [5] of 3.9 µM. For the same molecule, the “NO• release quantified as nitrite” value in the series on M. tuberculosis fgd1∷tn is given as “abolished”. For the same molecule, the “M. tuberculosis CFUs in mouse lungs and spleen versus vehicle” value with M. tuberculosis H37Rv [6] is on record as “failed to demonstrate a reduction in M. tuberculosis CFUs”. Moreover, the “FAMEs and MAMEs profile by TLC” value in series [7] is “depletion of MAMEs and accumulation of precursor FAMEs”. In addition, the “inhibition of human cytochrome P450 isoforms” value in series [8] is reported as “did not significantly inhibit”. In series [9], this molecule came in with a half-life of 61.7 min and a microsomal CLint of 11.2 µL/min/mg. The tolerability in mice entry in series [10] is recorded as “lethargy”. Moreover, in series [3], the solubility at 4 h is 0.853 µM (≈ 0.35 µg/mL). The “level in the mouse lungs” value in series [11] (5 h post a single 25 mg/kg dose, limit of quantification 25 ng/mL) is reported as “near the limit of quantification”. Moreover, in series [11] (mouse), the “Clung/Cplasma at 5 h” value is recorded as “BLQ” and the “T>MIC” value is 8 to 24 h. In the series with P aeruginosa, the MIC is more than 120 µM. Besides, in the series “Mouse plasma stability”, the “stability in mouse plasma, compound remaining” value is recorded as “satisfactory stabilities in mouse plasma”. Moreover, in series [12], the “reduction in colony-forming units (CFUs)” value is “ca. 7 log10”.

Take `CC1(Nc2nc(N/N=C/c3ccc([N+](=O)[O-])o3)nc(N3CCOCC3)n2)CC1` [JSF-2625, (E)-N-(1-methylcyclopropyl)-4-morpholino-6-(2-((5-nitrofuran-2-yl)methylene)hydrazineyl)-1,3,5-triazin-2-amine]: the Kp at 5 h in “in vivo” (25 mg/kg) was found to be 0.3. In the series “in vivo”, this molecule showed a Vd of 1.44 L/kg, a clearance of 88 mL/min/kg and a half-life of 11.4 min. In the series “in vivo” (po, 25 mg/kg), this molecule displayed an AUC(0-t) of 538 ng·h/mL, a Cmax of 266 ng/mL and a bioavailability of 11.4%. This molecule also showed an MIC in the series with M. tuberculosis H37Rv [1] (setting [17]) of 0.25 µM (≈ 0.0971 µg/mL). The half-life in series [2] was 56.4 min. For the same molecule, the “stability in mouse plasma, aqueous DMSO, or aqueous CH3CN” value in [13] is “found to degrade”. In series [3], this molecule came in with a solubility at 4 h of 8.71 µM (≈ 3.38 µg/mL). Besides, the “T>MIC” value in series [11] (mouse) lay within 1 to 3 h.

In the series “in vivo” (25 mg/kg), `O=[N+]([O-])c1ccc(/C=N/Nc2nc(N3CCC3)nc(N3CCOCC3)n2)o1` [JSF-2619, (E)-4-(4-(azetidin-1-yl)-6-(2-((5-nitrofuran-2-yl)methylene)hydrazineyl)-1,3,5-triazin-2-yl)morpholine] showed a Kp at 5 h of 0.23. In addition, in “in vivo”, the Vd came to 1.91 L/kg, the clearance was 61.7 mL/min/kg and the half-life is 21.6 min. Besides, in “in vivo” (po, 25 mg/kg), the AUC(0-t) was determined as 7640 ng·h/mL, the Cmax is 4200 ng/mL and the bioavailability is 49.2%. In addition, in [11] (mouse), the “T>MIC” value fell in the range of 3 to 5 h. The “stability in mouse plasma, compound remaining” value in “Mouse plasma stability” was “satisfactory stabilities in mouse plasma”.

`NNC(=O)c1ccncc1` [INH, reference compound] showed an MIC in the series on M. tuberculosis H37Rv [1] (setting [17]) of 0.16 µM (≈ 0.0219 µg/mL). In addition, the “FAMEs and MAMEs profile by TLC” value in series [7] is listed as “reduction of mycolic acids”.

As for `O=[N+]([O-])c1cn2c(n1)OC[C@@H](OCc1ccc(OC(F)(F)F)cc1)C2` [Pretomanid, reference compound], the MIC was determined as 0.078 µM (≈ 0.028 µg/mL) with M. tuberculosis H37Rv [1] (H37Rv) and 0.039 µM (≈ 0.014 µg/mL) in the series with M. tuberculosis H37Rv [1] (setting [17]). Moreover, the “FAMEs and MAMEs profile by TLC” value in [7] was “decrease of MAMEs”. Besides, the “reduction in colony-forming units (CFUs)” value in series [12] was found to be 6 log10.

In the case of `O=[N+]([O-])c1ccc(/C=N/Nc2nc(Nc3ccccc3)nc(Nc3ccccc3)n2)o1` [JSF-2019, (E)-6-(2-((5-nitrofuran-2-yl)methylene)hydrazinyl)-N2,N4-diphenyl-1,3,5-triazine-2,4-diamine], the IC50 is 24 ± 3.6 µM at purified InhA (InhA IC50, in the presence of 1% CMC Tween-20) and 20 ± 2.4 µM against purified InhA (InhA IC50, without added detergent, substrate 2-dodecenoyl-CoA, NADH). The molecule further had a Kp at 5 h in “in vivo” (25 mg/kg) of 2.6. Further, the AUC in “in vivo” (po, 25 mg/kg) stood at 1150 ng·h/mL. For the same molecule, the AUC(0-t) in the series “in vivo” (po, 25 mg/kg) was 1150 ng·h/mL. Besides, the Cmax in the series “in vivo” (po, 25 mg/kg) stood at 317 ng/mL. The molecule further yielded an MIC against M. tuberculosis H37Rv [1] (setting [17]) of 0.078 µM (≈ 0.0325 µg/mL). The “NO• release quantified as nitrite” value is “smaller yet quantifiable NO• release compared to pretomanid” with M. tuberculosis H37Rv [4] and “not discernible” in the series with M. tuberculosis fgd1∷tn. In addition, in the series on M. tuberculosis, the “MBC (lowest concentration to reduce the bacterial population by 2 log10)” value is listed as 600 – 1200 nM. Further, the “MIC shift / loss of susceptibility, fgd1∷tn versus H37Rv” value in [14] stood at 17 fold. For the same molecule, in [2], the half-life is 63.6 min. Moreover, in series [7] ([…], INH and pretomanid at 10x MIC, JSF-2019 and JSF-2513 1 – 40x MIC), the “FAMEs and MAMEs profile by TLC” value was “accumulation of FAMEs and decrease of MAMEs”. Further, the “MIC (minimum concentration to inhibit 90% of bacterial growth)” value in the series on M. tuberculosis H37Rv [15] (ref Ekins et al., 2013) was 0.15 µM. For the same molecule, the “T>MIC” value in series [11] (mouse) worked out at 5.0 h. Also, the “aqueous solubility S” value in series [16] was less than 0.060 µM. For the same molecule, the “reduction in colony-forming units (CFUs)” value in series [12] is given as approximately 4 log10.

Turning to `FC(F)(F)Oc1ccc(CO[C@@H]2COc3nccn3C2)cc1` [des-nitro pretomanid, reference compound], the whole-cell efficacy entry in the series on M. tuberculosis H37Rv [15] (ref Singh et al., 2008) is given as “lack quantifiable whole-cell efficacy”.
